PubChem BioAssay (NCI)
“And” between values parts separate entries of the source, which are not always exact repeats. Equal values may be shown once.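 96-well plates; 48 h exposure; 5 concentrations. Endpoints by linear interpolation between flanking doses. Not reached: highest tested concentration assigned. Here, GI50 denotes the concentration required for 50% inhibition of growth. The concentration for full growth arrest is given as TGI.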

Columns and labels:
Assay in all cases: NCI tumour cell line growth inhibition, 48 h
SR leukemia = test system: SR leukemia
EKVX NSCLC = test system: EKVX NSCLC
HT29 colon = test system: HT29 colon
HOP-92 NSCLC = test system: HOP-92 NSCLC
OVCAR-5 ovarian = test system: OVCAR-5 ovarian
CCRF-CEM leukemia = test system: CCRF-CEM leukemia
UO-31 renal = test system: UO-31 renal
HCT-116 colon = test system: HCT-116 colon
MALME-3M melanoma = test system: MALME-3M melanoma
SW-620 colon = test system: SW-620 colon

SMILES	TGI (SR leukemia)	TGI (EKVX NSCLC)	TGI (HT29 colon)	TGI (HOP-92 NSCLC)	TGI (OVCAR-5 ovarian)	TGI (CCRF-CEM leukemia)	TGI (UO-31 renal)	TGI (HCT-116 colon)	GI50 (SR leukemia)	GI50 (MALME-3M melanoma)	TGI (MALME-3M melanoma)	GI50 (CCRF-CEM leukemia)	GI50 (HCT-116 colon)	GI50 (SW-620 colon)	TGI (SW-620 colon)	GI50 (EKVX NSCLC)	GI50 (HT29 colon)	GI50 (HOP-92 NSCLC)	GI50 (OVCAR-5 ovarian)	GI50 (UO-31 renal)
O=c1[nH]cnc2c1nnn2C1C=C(CO)C(O)C1O (centres undefined)	> 100 µM	> 100 µM	> 100 µM	> 100 µM	> 100 µM	> 100 µM	> 100 µM	> 100 µM												
CN(C)CC1CCCC(CN(C)C)C1=O (centres undefined)	1.64 µM	17.8 µM and 14.1 µM		2.26 µM	32.7 µM and 33.7 µM	0.559 µM and 0.21 µM		3.64 µM and 7.98 µM	0.254 µM and 0.803 µM	0.653 µM and 2.61 µM	1.61 µM and 6.54 µM	0.155 µM and 0.0588 µM	1.66 µM and 3.36 µM	0.367 µM	0.639 µM and 1.92 µM					
COc1ccc(C(=O)Nc2ccccc2C#N)cc1	> 100 µM	> 100 µM	> 100 µM	> 100 µM	> 100 µM	> 100 µM		> 100 µM			> 100 µM				> 100 µM					
O=C1/C(=C/c2ccccc2Cl)COc2ccccc21		29.7 µM	45.1 µM	29.4 µM	32.4 µM	33.7 µM	28.3 µM	17 µM			29.7 µM				20.8 µM					
C=C(CNCCc1ccc(O)cc1)[C@@H]1CC[C@]2(CO)CC[C@]3(C)[C@H](CC[C@@H]4[C@@]5(C)CCC(NCCO)C(C)(C)[C@@H]5CC[C@]43C)[C@@H]12 (some centres undefined)		3.41 µM	1.57 µM	2.41 µM	3.31 µM	1.92 µM	2.86 µM	1.19 µM		1.54 µM	3.08 µM	0.433 µM	0.351 µM	1.27 µM	2.68 µM	1.6 µM	0.395 µM	1.09 µM	1.67 µM	1.47 µM
COC(=O)[C@@]12C3=NO[C@]1(C(=O)OC)C(O[Si](C)(C)C(C)(C)C)C1OC(C)(C)OC1[C@@H]2[C@@H](OCc1ccccc1)CC3 (some centres undefined)		> 100 µM	> 100 µM	17.3 µM		> 100 µM	> 100 µM	> 100 µM							> 100 µM					
c1ccc(CNc2nc(Nc3ccc(-c4nc5ccccc5[nH]4)cc3)c3cn[nH]c3n2)cc1		23.6 µM	5.57 µM	5.56 µM	6.86 µM	> 100 µM	6.02 µM	3.64 µM		1.81 µM	3.8 µM	3.62 µM	1.74 µM	2.69 µM	6.62 µM	3.27 µM	2.09 µM	1.99 µM	2.52 µM	2.02 µM
C=C1CCC2C3(C)COC(c4cccc(Cl)c4)OC3CCC2(C)C1/C=C/C1=CCOC1=O (centres undefined)	> 100 µM	> 100 µM	> 100 µM	> 100 µM	> 100 µM	> 100 µM		> 100 µM	4.11 µM	> 100 µM	> 100 µM	7.51 µM	3.08 µM	80.3 µM	> 100 µM	2.55 µM	5.32 µM	> 100 µM	> 100 µM	
CCOC(=O)C1=C(O)CSC1=Nc1ccc(N=C2SCC(O)=C2C(=O)OCC)cc1		96.7 µM	60.2 µM	64 µM	54 µM	> 100 µM	37.7 µM	35.2 µM			40.4 µM				66.6 µM					
